Literature values as cited in US20020142346A1, “Binding compounds and methods for identifying binding compounds” (priority 2000, published 2002).

Key:
[1] = biological target: Src; conditions: binding domain Src; preferred peptide
[2] = biological target: T1, SH2 (src) (Homo sapiens, UniProt P12931); conditions: binding domain SH2 (src); preferred peptide
T1 construct: SH2 (src)

Substance: EPQpYEEIPIYLK
- Kd [1]: 0.08 µM

Substance: PYEEIY
- Kd [2]: 0.1 µM
